Source: US6914045B2, “Glycopeptide antibiotics” (Wyeth Holdings Corporation, priority 2001, dated 2005)
Converted amounts (≈) assume the structure as drawn.

Experiments:
Experiment in all cases: in vitro antibacterial evaluation, MIC by broth dilution
Type in all cases: cell-based
Streptococcus sp. = details: broth dilution, 18 hours at 35° C.
Method in brief: (§1)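 Broth dilution per NCCLS M7-A2 in Mueller-Hinton II medium, inoculum 5×10^5 CFU/mL, antibiotic range 64-0.06 μg/mL. MIC taken as lowest concentration inhibiting growth; Gram-positive panel includes recent clinical isolates resistant to methicillin, penicillin and/or vancomycin.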

Enterococcus sp. = details: broth dilution, 18 hours at 35° C.
Method in brief: as §1

Staphylococcus sp. = details: broth dilution, 18 hours at 35° C.; for MIC Staphylococcus aureus (ATCC 29213): strain ATCC 29213; for MIC Staphylococcus aureus (GC 1131): strain GC 1131; for MIC Staphylococcus aureus (GC 3051): strain GC 3051; for MIC Staphylococcus aureus (GC 3053): strain GC 3053; for MIC Staphylococcus aureus (GC 4541): strain GC 4541; for MIC Staphylococcus aureus (GC 4542): strain GC 4542; for MIC Staphylococcus aureus-SMITH (GC 4543): strain GC 4543; for MIC Staphylococcus aureus (GC 4544): strain GC 4544; for MIC Staphylococcus aureus (GC 4545): strain GC 4545; for MIC Staphylococcus haemolyticus (GC 4546): strain GC 4546; for MIC Coagulase Negative Staphylococcus (GC 4547): strain GC 4547; for MIC Coagulase Negative Staphylococcus (GC 4548): strain GC 4548; for MIC Coagulase Negative Staphylococcus (GC 4549): strain GC 4549; for MIC Coagulase Negative Staphylococcus (GC 4551): strain GC 4551; for MIC Coagulase Negative Staphylococcus (GC 6257): strain GC 6257
Method in brief: as §1

Escherichia coli = details: 18 hours at 35° C.

## CC(c1ccccc1)C1NC(=O)CNC(=O)C(CO)NC(=O)C(C(O)C2CNC(=N)N2C2OC(CO)C(O)C(O)C2O)NC(=O)C(C(O)C2CNC(=N)N2)NC(=O)C(Cc2ccc(OC3OC(CO)C(OC4OC(CO)C(O)C5OC6(CCCCCCCCCCCC6)OC45)C(O)C3O)cc2)NC1=O (stereo not drawn) [Example 210a]
Streptococcus sp.
  MIC Streptococcus agalactiae (GC 4564): 2 µg/mL (≈ 1.36 µM)
  MIC Streptococcus pneumoniae (ATCC 6301): 0.5 µg/mL (≈ 0.339 µM)
  MIC Streptococcus pneumoniae (GC 1894): <0.06 µg/mL
  MIC Streptococcus pneumoniae (GC 4565): 0.25 µg/mL (≈ 0.17 µM)
  MIC Streptococcus pyogenes (GC 4563): 1 µg/mL (≈ 0.679 µM)
Streptococcus sp.; inoculum 5×10^5 CFU/mL, strain ATCC 6301
  MIC Streptococcus pneumoniae (ATCC 6301): 0.5 µg/mL (≈ 0.339 µM)
Streptococcus sp.; inoculum 5×10^5 CFU/mL, strain GC 1894
  MIC Streptococcus pneumoniae (GC 1894): <0.06 µg/mL
Streptococcus sp.; inoculum 5×10^5 CFU/mL, strain GC 4563
  MIC Streptococcus pyogenes (GC 4563): 1 µg/mL (≈ 0.679 µM)
Streptococcus sp.; inoculum 5×10^5 CFU/mL, strain GC 4564
  MIC Streptococcus agalactiae (GC 4564): 2 µg/mL (≈ 1.36 µM)
Streptococcus sp.; inoculum 5×10^5 CFU/mL, strain GC 4565
  MIC Streptococcus pneumoniae (GC 4565): 0.25 µg/mL (≈ 0.17 µM)
Enterococcus sp.
  MIC Enterococcus avium (GC 4558): 4 µg/mL (≈ 2.71 µM)
  MIC Enterococcus faecalis (ATCC 29212): 8 µg/mL (≈ 5.43 µM)
  MIC Enterococcus faecalis (GC 2242): 8 µg/mL (≈ 5.43 µM)
  MIC Enterococcus faecalis (GC 2691): 8 µg/mL (≈ 5.43 µM)
  MIC Enterococcus faecalis (GC 3059): 8 µg/mL (≈ 5.43 µM)
  MIC Enterococcus faecalis (GC 4552): 8 µg/mL (≈ 5.43 µM)
  MIC Enterococcus faecalis (GC 4553): 8 µg/mL (≈ 5.43 µM)
  MIC Enterococcus faecalis (GC 4554): 8 µg/mL (≈ 5.43 µM)
  MIC Enterococcus faecalis (GC 6189): 8 µg/mL (≈ 5.43 µM)
  MIC Enterococcus faecium (GC 2243): 4 µg/mL (≈ 2.71 µM)
  MIC Enterococcus faecium (GC 4556): 8 µg/mL (≈ 5.43 µM)
  MIC Enterococcus faecium (GC 4557): 4 µg/mL (≈ 2.71 µM)
Enterococcus sp.; inoculum 5×10^5 CFU/mL, strain ATCC 29212
  MIC Enterococcus faecalis (ATCC 29212): 8 µg/mL (≈ 5.43 µM)
Enterococcus sp.; inoculum 5×10^5 CFU/mL, strain GC 2242
  MIC Enterococcus faecalis (GC 2242): 8 µg/mL (≈ 5.43 µM)
Enterococcus sp.; inoculum 5×10^5 CFU/mL, strain GC 2243
  MIC Enterococcus faecium (GC 2243): 4 µg/mL (≈ 2.71 µM)
Enterococcus sp.; inoculum 5×10^5 CFU/mL, strain GC 2691
  MIC Enterococcus faecalis (GC 2691): 8 µg/mL (≈ 5.43 µM)
Enterococcus sp.; inoculum 5×10^5 CFU/mL, strain GC 3059
  MIC Enterococcus faecalis (GC 3059): 8 µg/mL (≈ 5.43 µM)
Enterococcus sp.; inoculum 5×10^5 CFU/mL, strain GC 4552
  MIC Enterococcus faecalis (GC 4552): 8 µg/mL (≈ 5.43 µM)
Enterococcus sp.; inoculum 5×10^5 CFU/mL, strain GC 4553
  MIC Enterococcus faecalis (GC 4553): 8 µg/mL (≈ 5.43 µM)
Enterococcus sp.; inoculum 5×10^5 CFU/mL, strain GC 4554
  MIC Enterococcus faecalis (GC 4554): 8 µg/mL (≈ 5.43 µM)
Enterococcus sp.; inoculum 5×10^5 CFU/mL, strain GC 4556
  MIC Enterococcus faecium (GC 4556): 8 µg/mL (≈ 5.43 µM)
Enterococcus sp.; inoculum 5×10^5 CFU/mL, strain GC 4557
  MIC Enterococcus faecium (GC 4557): 4 µg/mL (≈ 2.71 µM)
Enterococcus sp.; inoculum 5×10^5 CFU/mL, strain GC 4558
  MIC Enterococcus avium (GC 4558): 4 µg/mL (≈ 2.71 µM)
Enterococcus sp.; inoculum 5×10^5 CFU/mL, strain GC 6189
  MIC Enterococcus faecalis (GC 6189): 8 µg/mL (≈ 5.43 µM)
Staphylococcus sp.
  MIC Staphylococcus aureus (ATCC 29213): 4 µg/mL (≈ 2.71 µM)
  MIC Staphylococcus aureus (GC 1131): 4 µg/mL (≈ 2.71 µM)
  MIC Staphylococcus aureus (GC 3051): 8 µg/mL (≈ 5.43 µM)
  MIC Staphylococcus aureus (GC 3053): 4 µg/mL (≈ 2.71 µM)
  MIC Staphylococcus aureus (GC 4541): 4 µg/mL (≈ 2.71 µM)
  MIC Staphylococcus aureus (GC 4542): 8 µg/mL (≈ 5.43 µM)
  MIC Staphylococcus aureus-SMITH (GC 4543): 4 µg/mL (≈ 2.71 µM)
  MIC Staphylococcus aureus (GC 4544): 8 µg/mL (≈ 5.43 µM)
  MIC Staphylococcus aureus (GC 4545): 4 µg/mL (≈ 2.71 µM)
  MIC Staphylococcus haemolyticus (GC 4546): 8 µg/mL (≈ 5.43 µM)
  MIC Coagulase Negative Staphylococcus (GC 4547): 4 µg/mL (≈ 2.71 µM)
  MIC Coagulase Negative Staphylococcus (GC 4548): 4 µg/mL (≈ 2.71 µM)
  MIC Coagulase Negative Staphylococcus (GC 4549): 2 µg/mL (≈ 1.36 µM)
  MIC Coagulase Negative Staphylococcus (GC 4551): 4 µg/mL (≈ 2.71 µM)
  MIC Coagulase Negative Staphylococcus (GC 6257): 4 µg/mL (≈ 2.71 µM)
Escherichia coli
  MIC Escherichia coli (ATCC 25922): >64 µg/mL
  MIC Escherichia coli (GC 4559): >64 µg/mL
  MIC Escherichia coli (GC 4560): 16 µg/mL (≈ 10.9 µM)

## CC(c1ccccc1)C1NC(=O)CNC(=O)C(CO)NC(=O)C(C(O)C2CNC(=N)N2C2OC(CO)C(O)C(O)C2O)NC(=O)C(C(O)C2CNC(=N)N2)NC(=O)C(Cc2ccc(O)c(NC=O)c2)NC1=O (stereo not drawn) [Example 18, Cyclo[glycyl-β-methylphenylalanyl-3-formamidotyrosyl-3-(2-iminoimidazolidin-4-yl)seryl-3-(3-hexopyranosyl-2-iminoimidazolidin-4-yl)serylseryl]]
Streptococcus sp.; strain ATCC 6301
  MIC Streptococcus pneumoniae (ATCC 6301): 128 µg/mL (≈ 126 µM)
Streptococcus sp.; strain GC 1894
  MIC Streptococcus pneumoniae (GC 1894): 64 µg/mL (≈ 63.1 µM)
Streptococcus sp.; strain GC 4563
  MIC Streptococcus pyogenes (GC 4563): 128 µg/mL (≈ 126 µM)
Streptococcus sp.; strain GC 4564
  MIC Streptococcus agalactiae (GC 4564): 128 µg/mL (≈ 126 µM)
Streptococcus sp.; strain GC 4565
  MIC Streptococcus pneumoniae (GC 4565): 128 µg/mL (≈ 126 µM)
Enterococcus sp.; strain ATCC 29212
  MIC Enterococcus faecalis (ATCC 29212): >128 µg/mL
Enterococcus sp.; strain GC 2242
  MIC Enterococcus faecalis (GC 2242): >128 µg/mL
Enterococcus sp.; strain GC 2243
  MIC Enterococcus faecium (GC 2243): >128 µg/mL
Enterococcus sp.; strain GC 2691
  MIC Enterococcus faecalis (GC 2691): >128 µg/mL
Enterococcus sp.; strain GC 3059
  MIC Enterococcus faecalis (GC 3059): >128 µg/mL
Enterococcus sp.; strain GC 4552
  MIC Enterococcus faecalis (GC 4552): >128 µg/mL
Enterococcus sp.; strain GC 4553
  MIC Enterococcus faecalis (GC 4553): 128 µg/mL (≈ 126 µM)
Enterococcus sp.; strain GC 4554
  MIC Enterococcus faecalis (GC 4554): >128 µg/mL
Enterococcus sp.; strain GC 4556
  MIC Enterococcus faecium (GC 4556): >128 µg/mL
Enterococcus sp.; strain GC 4557
  MIC Enterococcus faecium (GC 4557): 64 µg/mL (≈ 63.1 µM)
Enterococcus sp.; strain GC 4558
  MIC Enterococcus avium (GC 4558): 128 µg/mL (≈ 126 µM)
Enterococcus sp.; strain GC 6189
  MIC Enterococcus faecalis (GC 6189): >128 µg/mL
Staphylococcus sp.
  MIC Staphylococcus aureus (ATCC 29213): >128 µg/mL
  MIC Staphylococcus aureus (GC 1131): >128 µg/mL
  MIC Staphylococcus aureus (GC 3051): >128 µg/mL
  MIC Staphylococcus aureus (GC 3053): >128 µg/mL
  MIC Staphylococcus aureus (GC 4541): >128 µg/mL
  MIC Staphylococcus aureus (GC 4542): >128 µg/mL
  MIC Staphylococcus aureus-SMITH (GC 4543): >128 µg/mL
  MIC Staphylococcus aureus (GC 4544): >128 µg/mL
  MIC Staphylococcus aureus (GC 4545): >128 µg/mL
  MIC Staphylococcus haemolyticus (GC 4546): 128 µg/mL (≈ 126 µM)
  MIC Coagulase Negative Staphylococcus (GC 4547): 128 µg/mL (≈ 126 µM)
  MIC Coagulase Negative Staphylococcus (GC 4548): 128 µg/mL (≈ 126 µM)
  MIC Coagulase Negative Staphylococcus (GC 4549): 64 µg/mL (≈ 63.1 µM)
  MIC Coagulase Negative Staphylococcus (GC 4551): >128 µg/mL
  MIC Coagulase Negative Staphylococcus (GC 6257): 128 µg/mL (≈ 126 µM)
Escherichia coli; strain ATCC 25922, broth dilution
  MIC Escherichia coli (ATCC 25922): 64 µg/mL (≈ 63.1 µM)
Escherichia coli; strain GC 4559, broth dilution
  MIC Escherichia coli (GC 4559): 32 µg/mL (≈ 31.6 µM)
Escherichia coli; strain GC 4560, broth dilution
  MIC Escherichia coli (GC 4560): 16 µg/mL (≈ 15.8 µM)
